Experimental data: PubChem BioAssay (NCI)
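Exposure lasted 48 hours, with cells grown in 96-well plates and compounds tested at five concentrations. GI50 = concentration required for 50% inhibition of growth. TGI denotes the concentration required for complete inhibition of growth.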 Where a SMILES comes first, the peptide text is derived from it. The star is where a group is joined. OSu = O=C1CCC(=O)N1O*

Key:
Assay in all cases: inhibition of tumour cell growth, NCI panel, 48 h
NCI-H522 lung = system: NCI-H522 lung
NCI-H226 lung = system: NCI-H226 lung
OVCAR-8 ovarian = system: OVCAR-8 ovarian
SK-OV-3 ovarian = system: SK-OV-3 ovarian
NCI-H23 lung = system: NCI-H23 lung
HOP-92 NSCLC = system: HOP-92 NSCLC
OVCAR-4 ovarian = system: OVCAR-4 ovarian
LOX IMVI melanoma = system: LOX IMVI melanoma

SMILES	TGI (NCI-H522 lung) [µM]	TGI (NCI-H226 lung) [µM]	TGI (OVCAR-8 ovarian) [µM]	TGI (SK-OV-3 ovarian) [µM]	TGI (NCI-H23 lung) [µM]	TGI (HOP-92 NSCLC) [µM]	TGI (OVCAR-4 ovarian) [µM]	TGI (LOX IMVI melanoma) [µM]	GI50 (OVCAR-4 ovarian) [µM]	GI50 (NCI-H522 lung) [µM]	GI50 (HOP-92 NSCLC) [µM]	GI50 (NCI-H226 lung) [µM]	GI50 (OVCAR-8 ovarian) [µM]	GI50 (LOX IMVI melanoma) [µM]	GI50 (SK-OV-3 ovarian) [µM]	GI50 (NCI-H23 lung) [µM]
CNC(=S)/C(C#N)=C(\N)N1CCCC1	> 100	> 100	> 100	> 100	> 100											
NCCCCC(NC(=O)C(N)Cc1ccc(O)cc1)C(=O)NC(Cc1ccc(O)cc1)C(=O)NC(CCCCN)C(=O)ON1C(=O)CCC1=O (configuration not stated) (H-YKYK-OSu; configuration not given here)		> 100	> 100		> 100	> 100										
C1=NCCOCCN=Cc2ccc(cc2)OCc2cccc(n2)COc2ccc1cc2	> 100	> 100	> 100	> 100	> 100	> 100	> 100									
C#C[C@]1(O)CC[C@H]2[C@@H]3CCC4=C/C(=N/OC(=O)c5cccc6c(=O)c7ccccc7[nH]c56)CCC4[C@H]3CC[C@@]21CC (some centres not stated)	56.1	> 100	> 100	> 100	> 100	> 100	> 100	> 56.6								
Cc1cc(NS(=O)(=O)c2ccc(Nc3c4ccccc4nc4c(C(=O)NCCO)cccc34)cc2)no1	30.2		> 100	> 100	> 100	> 100	86.7	> 100								
O=C(NC1(C(=O)O)CCCC1)c1ccccc1	> 100	> 100	> 100	> 100	> 100	> 100		> 100								
CC(=O)O[C@H]1C(=O)[C@@]2(C)[C@H]([C@H](OC(=O)c3ccccc3)[C@]3(O)C[C@H](OC(=O)[C@H](O)[C@@H](NC(=O)c4ccc(N(C)C)cc4)c4ccccc4)C(C)=C1C3(C)C)[C@]1(OC(C)=O)CO[C@@H]1C[C@@H]2O			> 50	> 50	> 50	> 50	> 50	> 50								
COc1ccccc1C1C(C#N)=C(N)Oc2cc(O)ccc21 (configuration not stated)	17.1	35	> 100	44.6	49.4	33.7	85.9	> 100	25.3	3.15	4.77	13.7	35.2	30.8	16.8	17.6
CCOC1CCN(C(=O)c2ccccc2)O1 (configuration not stated)	> 10	> 10	> 10	> 10	> 10		> 10	> 10								
C=CCn1c(-c2ccc(Cl)cc2)csc1=Nc1ccccc1OC		> 100	> 100	> 100	> 100	> 100	> 100	> 100								
O=P1(Cc2ccccc2)c2ccccc2-c2ccccc21	14.1	31.2	36.7	> 100	22.1	6.99	87.9	23.1								
O=C1NC(=Nc2ccccc2)C(=Nc2ccccc2)N1c1ccccc1	11.5	32	29.4	34.4	30.8	30	33.1	30.1								
COc1ccc2c3c1OC1C(OC)(OC)CC4(C=C2)CN(C)CCC314 (configuration not stated)		> 100	> 100	> 100	> 100		> 100	> 100								
Cc1ccc(SCC(OCn2cnc3c(Cl)nc(N)nc32)[C@H](C)F)cc1 (some centres not stated)	29.4	> 100	> 100	> 100	> 100	> 100	> 100	> 100								
C[n+]1cn(-c2nc3ccccc3nc2[N-]S(=O)(=O)c2ccccc2)c2ccccc21	5.27	> 100	> 100	> 100	> 100	> 100	> 100	> 100								
CC(=O)c1c(O)n(-c2ccc(C)cc2)c(=O)c2c(N)n[nH]c12	> 100	> 100	> 100	> 100	> 100		> 100	> 100								
C/C(O[Si](C(C)C)(C(C)C)C(C)C)=C(\C)C(=O)N(C)c1ccccc1Cl	> 100	> 100	> 100		> 100	> 100	> 100	> 100								
CCN(CC)CCN1C(=O)C(=O)N(c2cccc3ccccc23)C1=O	> 10	> 10	> 10	> 10	> 10		> 10	> 10								
Cc1cc(N(CCC#N)CCC#N)ccc1/C(N=Nc1ccc([N+](=O)[O-])cc1)=N\NC(=O)c1ccccc1	44.7	> 100	> 100	> 100	> 100		> 100									
C[C@H]1O[C@@H](C(C)(C)C)OC(=O)[C@@H]1C(OC(=O)c1ccccc1)c1cccc2ccccc12 (some centres not stated)	> 100	> 100	> 100	> 100	> 100		> 100	> 100								
C=CCN(CCN(CC=C)S(=O)(=O)c1ccc(C)cc1)S(=O)(=O)c1ccc(C)cc1	> 100	> 100	> 100		> 100	> 100	> 100	> 100								
COc1ccc2oc(C(=O)N3CC(CCl)c4ccc(N)cc43)cc2c1 (configuration not stated)	0.0828	14.1	1.51	8.78	1.1	18.7		32								
Cc1ccc(/S(Cc2ccccc2)=N\S(=O)(=O)c2ccc(C)cc2)cc1 (configuration not stated)		> 100	> 100		> 100	> 100										
NC(N)=N/N=C/c1c(-c2cc([N+](=O)[O-])c(Cl)cc2Cl)nc2n1CCS2	51.5	92.5	> 100		48.3	61.6	33.9	> 100								
COc1cc(OC)c(OC)cc1/C=C/c1cc[n+](C)c2ccccc12			> 100	> 100	97.4	76.2	> 100									
C=CCCC(=O)C(=[N+]=[N-])C(=O)CCC(=O)c1ccccc1		> 10	> 10	> 10	> 10	> 10		> 10								
